*1 amine or outer side, *2 acyl side, *3 side chain or, on linkers, in order; H or OH if unused. Where a SMILES comes first, the peptide text is derived from it. Bridges are numbered along the chain shown (N, C = ends). TATA = O=C(CC[*:1])N1CN(C(=O)CC[*:2])CN(C(=O)CC[*:3])C1
Legend:
TSLP [1] = biological target: T1, TSLP (Homo sapiens, UniProt Q969D9); test: Human TSLP Surface Plasmon Resonance (SPR) binding assay; parameters: The resulting construct spCD33-6×HN-TEV-hTSLP(29-159)-Avi; 6xHN tag with TEV site (N, cleaved yes); made in house; host or cells: Expi293F cells; details: biotinylated human TSLP immobilized on streptavidin chip; 20° C.; steady-state or kinetic 1:1 fit; read-out: hTSLP SPR Kd
TSLP [2] = biological target: T1, TSLP; test: Human peripheral blood mononuclear cell assay (TSLP-induced CCL17/TARC); assay type: cell-based; parameters: host or cells: added to human PBMCs from healthy donors; details: read-out: CCL17 % Inhibition @ 10 μM, […] TSLP
Procedure: Human peripheral blood mononuclear cells (PMBCs) were obtained from heparinized whole blood (healthy donors) by density gradient centrifugation using Lymphoprep (StemCell Technologies, Vancouver, BC) according to the manufacturers instructions. The PBMCs were washed twice with PBS containing 2 mM EDTA and 2% fetal calf serum (FCS) and reconstituted in RPMI containing 10% FCS and 2% PenStrep at a final concentration of 3 million cells/mL. This cell suspension (100 μL) was aliquoted into the wells of a 96-well flat bottom tissue culture plate. 5 μL of bicycle peptide or vehicle (0.1% DMSO in complete medium) was then added and mixed with 5 μL of TSLPvehicle (complete medium). […] The plate was incubated for 30 minutes are rt. 10 μL of this mixture was added to cells and the plate was incubated for 24 hours in a 10% CO2, humidified incubator at 37° C. The plate was centrifuged at 300×g for 5 min and the collected supernatants frozen at −20° C. for subsequent CCL17/TARC analysis.
CCL17/TARC was determined by MSD (MesoScale Discovery, Maryland, USA) according to the manufacturer's instructions.

T1 sequence (Q969D9 29-159): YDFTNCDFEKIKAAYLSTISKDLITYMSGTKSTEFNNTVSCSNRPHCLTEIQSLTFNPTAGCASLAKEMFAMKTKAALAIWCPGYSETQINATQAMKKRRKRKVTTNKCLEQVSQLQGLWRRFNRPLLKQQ

SMILES: CC(C)C[C@@H]1NC(=O)[C@H](Cc2c[nH]c3ccccc23)NC(=O)[C@H]([C@@H](C)O)NC(=O)[C@@H](NC(=O)[C@H](C)N)CSCCC(=O)N2CN3CN(C2)C(=O)CCSC[C@H](NC(=O)[C@H](CC(=O)O)NC(=O)[C@H](CCC(=O)O)NC1=O)C(=O)N[C@@H](Cc1c[nH]c2ccccc12)C(=O)N[C@@H](CCCNC(=N)N)C(=O)NCC(=O)N[C@@H](Cc1ccccc1)C(=O)N[C@H](C(=O)N[C@@H](C)C(=O)N[C@@H](CC(=O)O)C(=O)N[C@@H](CO)C(N)=O)CSCCC3=O [Example 63, A-(SEQ ID NO: 49)-ADS] (H-ACTWLEDCWRGFCADS-NH2; linker 2-8-13 via TATA; N-terminus assumed)
- Kd (TSLP [1]): 65 nM
- inhibition at 10 µM (TSLP [2]): 24%

SMILES: CC(C)C[C@@H]1NC(=O)[C@H](Cc2c[nH]c3ccccc23)NC(=O)[C@@H]2CSCCC(=O)N3CN(CN(C3)C(=O)CCSC[C@@H](C(=O)N[C@@H](C)C(N)=O)NC(=O)[C@H](CO)NC1=O)C(=O)CCSC[C@H](NC(=O)[C@H](C)N)C(=O)N[C@@H](CC(=O)O)C(=O)N[C@@H](Cc1c[nH]c3ccccc13)C(=O)N[C@@H](Cc1c[nH]cn1)C(=O)N[C@@H](Cc1c[nH]c3ccccc13)C(=O)N[C@@H](CCC(=O)O)C(=O)N[C@@H](Cc1ccc(O)cc1)C(=O)N[C@@H](CC(=O)O)C(=O)N2 [Example 199, A-(SEQ ID NO: 144)-A]
- Kd (TSLP [1]): 81 nM
- inhibition at 10 µM (TSLP [2]): -3%

SMILES: CC(C)C[C@H](NC(=O)CNC(=O)[C@H](CC(=O)O)NC(=O)[C@H](C)NC(=O)[C@@H]1CSCCC(=O)N2CN3CN(C2)C(=O)CCSC[C@H](NC(=O)[C@H]([C@@H](C)O)NC(=O)[C@H](Cc2c[nH]c4ccccc24)NC(=O)[C@@H]2CCCN2C(=O)[C@H](CC(=O)O)NC(=O)[C@H](CC(C)C)NC(=O)[C@H](CC(=O)O)NC(=O)[C@H](CCCNC(=N)N)NC(=O)[C@@H](NC(=O)[C@H](C)N)CSCCC3=O)C(=O)N[C@@H](CO)C(=O)N[C@@H](CO)C(=O)N[C@@H](Cc2c[nH]c3ccccc23)C(=O)N[C@@H](Cc2c[nH]c3ccccc23)C(=O)N[C@@H](CC(C)C)C(=O)N1)C(=O)N[C@@H](Cc1ccc(O)cc1)C(=O)N[C@@H](CC(=O)O)C(=O)N[C@@H](C)C(N)=O [Example 193, A-(SEQ ID NO: 122)-ADGLYDA]
- Kd (TSLP [1]): 50 nM
- inhibition at 10 µM (TSLP [2]): 47%

SMILES: CC(C)C[C@H](NC(=O)[C@H](Cc1c[nH]cn1)NC(=O)[C@@H]1CSCCC(=O)N2CN3CN(C2)C(=O)CCSC[C@H](NC(=O)[C@H](CC(=O)O)NC(=O)[C@H](CCC(=O)O)NC(=O)[C@H](CC(C)C)NC(=O)[C@H](Cc2c[nH]c4ccccc24)NC(=O)[C@H](Cc2c[nH]cn2)NC(=O)[C@@H](NC(=O)[C@H](C)N)CSCCC3=O)C(=O)N[C@@H](Cc2c[nH]c3ccccc23)C(=O)N[C@@H](CCCNC(=N)N)C(=O)NCC(=O)N[C@@H](Cc2ccccc2)C(=O)N1)C(=O)N[C@@H](CCC(=O)O)C(N)=O [Example 75, A-(SEQ ID NO: 56)-HLE] (H-ACHWLEDCWRGFCHLE-NH2; linker 2-8-13 via TATA)
- Kd (TSLP [1]): 92 nM
- inhibition at 10 µM (TSLP [2]): -2%

SMILES: CC(C)C[C@@H]1NC(=O)[C@H](Cc2c[nH]c3ccccc23)NC(=O)[C@H](Cc2c[nH]c3ccccc23)NC(=O)[C@H](CC(N)=O)NC(=O)[C@@H]2CCCN2C(=O)[C@@H]2CSCCC(=O)N3CN(CN(C3)C(=O)CCSC[C@H](NC(=O)[C@@H]3CCCN3C(=O)[C@H](Cc3c[nH]cn3)NC(=O)[C@H](C)N)C(=O)N[C@@H](C)C(=O)N[C@@H](CC(=O)O)C(=O)N[C@@H](CC(C)C)C(=O)N[C@@H](CC(=O)O)C(=O)N3CCC[C@H]3C(=O)N[C@@H](Cc3c[nH]c4ccccc34)C(=O)N[C@@H]([C@@H](C)O)C(=O)N2)C(=O)CCSC[C@@H](C(=O)N[C@@H](C)C(N)=O)NC1=O [Example 165, AHP-(SEQ ID NO: 123)-A] (H-AHPCADLDPWTCPNWWLCA-NH2; linker 4-12-18 via TATA; N-terminus and C-terminus assumed)
- Kd (TSLP [1]): 30 nM
- inhibition at 10 µM (TSLP [2]): 33%

SMILES: CC(=O)N[C@H]1CSCCC(=O)N2CN3CN(C2)C(=O)CCSC[C@H](NC(=O)[C@H](CC(=O)O)NC(=O)[C@H](CCC(=O)O)NC(=O)[C@H](CC(C)C)NC(=O)[C@H](Cc2c[nH]c4ccccc24)NC(=O)[C@H](CCC(N)=O)NC1=O)C(=O)N[C@@H](Cc1c[nH]c2ccccc12)C(=O)N[C@@H](CCCNC(=N)N)C(=O)NCC(=O)N[C@@H](Cc1cccc(C)c1)C(=O)N[C@H](C(N)=O)CSCCC3=O [Example 74, Ac-(SEQ ID NO: 55)]
- Kd (TSLP [1]): 91 nM
- inhibition at 10 µM (TSLP [2]): 43%

SMILES: CC(C)C[C@@H]1NC(=O)[C@H](Cc2c[nH]c3ccccc23)NC(=O)[C@H](C(C)C)NC(=O)[C@@H](NC(=O)[C@@H]2CCCN2C(=O)[C@@H]2CCCN2C(=O)[C@@H](N)CO)CSCCC(=O)N2CN3CN(C2)C(=O)CCSC[C@H](NC(=O)[C@H](CC(=O)O)NC(=O)[C@H](CC(=O)O)NC1=O)C(=O)N[C@@H](Cc1c[nH]c2ccccc12)C(=O)N[C@@H](CCCNC(=N)N)C(=O)NCC(=O)N[C@@H](Cc1ccccc1)C(=O)N[C@H](C(=O)N[C@@H](C)C(N)=O)CSCCC3=O [Example 73, SPP-(SEQ ID NO: 54)-A] (H-SPPCVWLDDCWRGFCA-NH2; linker 4-10-15 via TATA; N-terminus and C-terminus assumed)
- Kd (TSLP [1]): 85 nM
- inhibition at 10 µM (TSLP [2]): -11%

SMILES: CC(=O)N[C@H]1CSCCC(=O)N2CN3CN(C2)C(=O)CCSC[C@H](NC(=O)[C@H](CC(=O)O)NC(=O)[C@H](CCC(=O)O)NC(=O)[C@H](CC(C)C)NC(=O)[C@H](Cc2c[nH]c4ccccc24)NC(=O)[C@H](CCC(N)=O)NC1=O)C(=O)N[C@@H](Cc1c[nH]c2ccccc12)C(=O)N[C@@H](CCCNC(=N)N)C(=O)NCC(=O)N[C@@H](Cc1ccc(Cl)c(Cl)c1)C(=O)N[C@H](C(N)=O)CSCCC3=O [Example 11, Ac-(SEQ ID NO: 9)]
- Kd (TSLP [1]): 5.8 nM
- inhibition at 10 µM (TSLP [2]): 43%

SMILES: CC(C)C[C@@H]1NC(=O)[C@H](Cc2c[nH]c3ccccc23)NC(=O)[C@H](Cc2c[nH]c3ccccc23)NC(=O)[C@H](CO)NC(=O)[C@H](CO)NC(=O)[C@@H]2CSCCC(=O)N3CN(CN(C3)C(=O)CCSC[C@@H](C(=O)N[C@@H](C)C(N)=O)NC1=O)C(=O)CCSC[C@H](NC(=O)[C@H](C)N)C(=O)N[C@@H](CCCNC(=N)N)C(=O)N[C@@H](CC(=O)O)C(=O)N[C@@H](CC(C)C)C(=O)N[C@@H](CC(=O)O)C(=O)N1CCC[C@H]1C(=O)N[C@@H](Cc1c[nH]c3ccccc13)C(=O)N[C@@H]([C@@H](C)O)C(=O)N2 [Example 164, A-(SEQ ID NO: 122)-A]
- Kd (TSLP [1]): 98 nM
- inhibition at 10 µM (TSLP [2]): 0%

SMILES: CC(C)C[C@@H]1NC(=O)[C@H](Cc2c[nH]c3ccccc23)NC(=O)[C@H](Cc2c[nH]c3ccccc23)NC(=O)[C@H](CC(=O)O)NC(=O)[C@H](CO)NC(=O)[C@@H]2CSCCC(=O)N3CN(CN(C3)C(=O)CCSC[C@H](NC(=O)[C@@H]3CCCN3C(=O)[C@H](C)NC(=O)[C@@H](N)CCCNC(=N)N)C(=O)N3CCC[C@H]3C(=O)N[C@@H](CC(=O)O)C(=O)N[C@@H](CC(C)C)C(=O)N[C@@H](CC(=O)O)C(=O)N3CCC[C@H]3C(=O)N[C@@H](Cc3c[nH]c4ccccc34)C(=O)N[C@@H]([C@@H](C)O)C(=O)N2)C(=O)CCSC[C@@H](C(=O)N[C@@H](C)C(N)=O)NC1=O [Example 187, RAP-(SEQ ID NO: 136)-A] (H-RAPCPDLDPWTCSDWWLCA-NH2; linker 4-12-18 via TATA; N-terminus and C-terminus assumed)
- Kd (TSLP [1]): 86 nM
- inhibition at 10 µM (TSLP [2]): 11%

SMILES: CC(=O)N[C@@H](C)C(=O)N[C@H]1CSCCC(=O)N2CN3CN(C2)C(=O)CCSC[C@@H](C(=O)N2CCC[C@H]2C(=O)N[C@@H](CC(C)C)C(=O)N[C@@H](CC(=O)O)C(N)=O)NC(=O)[C@H](Cc2ccccc2)NC(=O)CNC(=O)[C@H](CCCNC(=N)N)NC(=O)[C@H](Cc2c[nH]c4ccccc24)NC(=O)[C@H](CSCCC3=O)NC(=O)[C@H](CC(=O)O)NC(=O)[C@H](CCC(=O)O)NC(=O)[C@H](CC(C)C)NC(=O)[C@H](Cc2c[nH]c3ccccc23)NC(=O)[C@H](CCC(N)=O)NC1=O [Example 53, Ac-A-(SEQ ID NO: 38)-PLD]
- Kd (TSLP [1]): 43 nM
- inhibition at 10 µM (TSLP [2]): -2%

SMILES: CC(C)C[C@@H]1NC(=O)[C@H](Cc2c[nH]c3ccccc23)NC(=O)[C@H](Cc2c[nH]c3ccccc23)NC(=O)[C@H](CO)NC(=O)[C@H](CO)NC(=O)[C@@H]2CSCCC(=O)N3CN(CN(C3)C(=O)CCSC[C@H](NC(=O)[C@@H](NC(=O)[C@H](CCC(N)=O)NC(=O)[C@@H](NC(=O)[C@@H](NC(=O)[C@H](C)NC(=O)[C@@H](N)Cc3ccc(O)cc3)[C@@H](C)O)[C@@H](C)O)C(C)C)C(=O)N[C@@H](CCCNC(=N)N)C(=O)N[C@@H](CC(=O)O)C(=O)N[C@@H](CC(C)C)C(=O)N[C@@H](CC(=O)O)C(=O)N3CCC[C@H]3C(=O)N[C@@H](Cc3c[nH]c4ccccc34)C(=O)N[C@@H]([C@@H](C)O)C(=O)N2)C(=O)CCSC[C@@H](C(=O)N[C@@H](C)C(N)=O)NC1=O [Example 171, YATTQV-(SEQ ID NO: 122)-A]
- Kd (TSLP [1]): 48 nM
- inhibition at 10 µM (TSLP [2]): 36%

Source: US11866518B2, “Bicyclic peptide ligands specific for TSLP” (BicycleTx Limited, priority 2020, dated 2024)
